Measurements reported in publication PMC10059066, “Probing Serum Albumins and Cyclodextrins as Binders of the Mycotoxin Metabolites Alternariol-3-Glucoside, Alternariol-9-Monomethylether-3-Glucoside, and Zearalenone-14-Glucuronide” (Metabolites, 2023).
“And” between values parts separate entries of the source, which are not always exact repeats. Equal entries are not always repeated. Where two headings read alike, the source gives them in different places.

Tests used:
[1] = molecular target: T1, porcine serum albumin (PSA) (Sus scrofa, UniProt P08835); test: Fluorescence quenching of porcine serum albumin by mycotoxins; type: binding; settings: mycotoxin 0–5 μM, albumin 2 μM, PBS pH 7.4
T1 construct: purchased Merck (Darmstadt, Germany)
T1 sequence (P08835 25-607): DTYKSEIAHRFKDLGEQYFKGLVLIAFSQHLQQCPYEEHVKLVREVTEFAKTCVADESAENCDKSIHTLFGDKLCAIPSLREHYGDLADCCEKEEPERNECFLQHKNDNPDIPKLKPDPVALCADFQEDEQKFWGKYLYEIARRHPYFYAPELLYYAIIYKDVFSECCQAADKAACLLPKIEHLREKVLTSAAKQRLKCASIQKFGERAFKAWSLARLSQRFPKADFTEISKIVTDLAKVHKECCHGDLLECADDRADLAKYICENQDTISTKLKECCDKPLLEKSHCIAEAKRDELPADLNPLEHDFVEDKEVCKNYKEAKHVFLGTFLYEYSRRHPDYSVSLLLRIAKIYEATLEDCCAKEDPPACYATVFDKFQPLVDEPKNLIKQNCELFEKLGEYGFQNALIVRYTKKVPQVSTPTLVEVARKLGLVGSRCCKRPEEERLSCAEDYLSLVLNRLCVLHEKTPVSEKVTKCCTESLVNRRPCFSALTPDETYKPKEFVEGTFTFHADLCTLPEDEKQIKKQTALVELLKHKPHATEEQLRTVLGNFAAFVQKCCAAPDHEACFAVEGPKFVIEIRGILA
Protocol: (§1) Fluorescence emission spectra were collected at 25 °C using a Hitachi F-4500 fluorescence spectrophotometer (Tokyo, Japan). The quenching effects of AG, AMG, and Z14Glr (each 0–5 μM) on the emission signals of albumins (2 μM each) were examined at 340 nm in phosphate-buffered saline (PBS, pH 7.4). UV–vis measurements were performed at 25 °C in PBS, employing a Jasco V730 UV–vis spectrophotometer (Tokyo, Japan). Thereafter, we corrected the inner-filter effects of the mycotoxins, as previously reported. Stern–Volmer quenching constants (KSV; L/mol) were calculated with the graphical application of the Stern–Volmer equation [11, 29]:(1) I0/I=1+KSV×Q where I0 and I are the emission intensities of the protein without and with the quencher, respectively, while [Q] is the concentration (mol/L) of the quencher (mycotoxin). The binding constants (K; L/mol) of mycotoxin–albumin complexes were determined with nonlinear fitting, using the HyperQuad2006 software (version 3.1; Protonic Software GmbH, Hanau, Germany), as described previously.
(§2) The interaction of a ligand molecule with albumin usually induces a decrease in the emission signal of the protein [33]; therefore, fluorescence quenching studies were performed. In PBS (pH 7.4), increasing amounts of AG, AMG, and Z14Glr were added to standard concentrations of human (HSA), bovine (BSA), porcine (PSA), or rat (RSA) serum albumins, after which the emission spectra were recorded.
(§3) The KSV and K values of mycotoxin–albumin complexes were determined using the Stern–Volmer equation (Equation (1)) and the HyperQuad2006 software (see data in Table 1 and Table 2, respectively). […] The logKSV and logK values of the mycotoxin–albumin complexes were in good agreement (Table 1 and Table 2).

[2] = molecular target: T2, rat serum albumin (RSA) (Rattus norvegicus, UniProt P02770); test: Fluorescence quenching of rat serum albumin by mycotoxins; type: binding
T2 construct: purchased Merck (Darmstadt, Germany)
T2 sequence (P02770 25-608): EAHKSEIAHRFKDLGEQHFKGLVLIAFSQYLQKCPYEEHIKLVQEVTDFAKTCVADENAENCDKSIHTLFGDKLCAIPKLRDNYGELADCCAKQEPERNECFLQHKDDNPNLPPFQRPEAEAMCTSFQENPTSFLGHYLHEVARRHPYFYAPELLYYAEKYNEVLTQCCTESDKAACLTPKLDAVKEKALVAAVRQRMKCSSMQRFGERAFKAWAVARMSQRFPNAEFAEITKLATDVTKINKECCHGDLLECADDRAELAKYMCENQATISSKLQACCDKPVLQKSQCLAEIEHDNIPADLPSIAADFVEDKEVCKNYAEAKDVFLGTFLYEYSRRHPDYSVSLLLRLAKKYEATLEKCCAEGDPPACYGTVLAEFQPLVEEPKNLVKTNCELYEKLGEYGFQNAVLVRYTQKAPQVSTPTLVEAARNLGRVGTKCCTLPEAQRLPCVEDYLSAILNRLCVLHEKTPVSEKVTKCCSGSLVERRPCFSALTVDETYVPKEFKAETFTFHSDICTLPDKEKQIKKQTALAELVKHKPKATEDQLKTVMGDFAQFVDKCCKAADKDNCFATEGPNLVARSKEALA
Protocol: as §1, §2, §3

[3] = Fluorescence spectroscopic study of mycotoxin-SBECD complex formation; type: binding
Protocol: (§4) The impacts of SBECD (0–10 mM) and SGD (0–5 mM) on the emission signals of mycotoxins (1 μM each) were tested in sodium acetate buffer (0.05 M, pH 5.0). Mycotoxin–CD interactions were evaluated using the Benesi–Hildebrand equation [11, 31], assuming 1:1 stoichiometry of complex formation:(2) F0/F−F0=1/A+1/A×K×[CD] where K (L/mol) is the binding constant, F0 is the emission signal of the mycotoxin without the host molecules, F is the emission signal of the mycotoxin with CDs, A is a constant, and [CD] is the molar concentration (mol/L) of the host molecules.
(§5) Therefore, CD-induced elevation in the fluorescence emission intensities of mycotoxins was examined.
(§6) Based on the emission signals at 455 nm, the binding constants of ligand–CD complexes were calculated using the Benesi–Hildebrand equation (Equation (2)). Background corrections were performed in each experiment. […] Glucose and glucuronic acid are bulky, hydrophilic molecules; therefore, it is reasonable to hypothesize that these substituents make the inclusion of AG, AMG, and Z14Glr by the apolar CD cavity difficult.

[4] = molecular target: T3, human serum albumin (HSA) (Homo sapiens, UniProt P02768); test: Ultracentrifugation study of mycotoxin-HSA binding
T3 construct: purchased Merck (Darmstadt, Germany)
T3 sequence (P02768 25-609): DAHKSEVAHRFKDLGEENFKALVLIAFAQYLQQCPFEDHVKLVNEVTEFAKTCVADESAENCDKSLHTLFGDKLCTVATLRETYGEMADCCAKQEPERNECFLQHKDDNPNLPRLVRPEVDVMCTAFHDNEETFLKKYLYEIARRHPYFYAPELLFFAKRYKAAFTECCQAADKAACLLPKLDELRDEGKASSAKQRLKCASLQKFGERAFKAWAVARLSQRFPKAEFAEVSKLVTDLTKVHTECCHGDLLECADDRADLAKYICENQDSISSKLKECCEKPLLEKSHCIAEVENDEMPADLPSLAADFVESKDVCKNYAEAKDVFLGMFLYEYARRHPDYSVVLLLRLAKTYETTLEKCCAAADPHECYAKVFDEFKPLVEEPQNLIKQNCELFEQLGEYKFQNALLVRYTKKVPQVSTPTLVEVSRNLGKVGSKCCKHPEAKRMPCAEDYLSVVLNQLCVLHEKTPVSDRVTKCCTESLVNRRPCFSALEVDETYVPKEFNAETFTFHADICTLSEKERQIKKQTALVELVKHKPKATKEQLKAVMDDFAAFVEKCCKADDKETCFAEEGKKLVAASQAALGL
Protocol: To confirm the data calculated based on fluorescence quenching studies, ultracentrifugation experiments were also performed. With the proper conditions of ultracentrifugation, albumin (with the bound ligands) can be sedimented. The samples (final volume: 500 μL) contained AG, AMG, or Z14Glr (5 μM each) with HSA (60 or 180 μM) dissolved in PBS. Centrifugation (16 h, 170,000× g, 20 °C) was performed using 11 × 34 mm PC tubes (Beckman Coulter, Brea, CA, US) and a Beckman Coulter Optima MAX-XP tabletop ultracentrifuge (fixed-angle rotor). The unbound fractions of mycotoxins were determined in the protein-free supernatant by HPLC-FLD (see details in Section 2.5), as previously reported. (3) K=[LA]/L×[A] where [L], [A], and [LA] are the concentrations (mol/L) of the ligand (unbound), albumin (unbound), and the ligand–albumin complex, respectively.
Furthermore, to test the impact of environmental pH on the stability of mycotoxin–albumin complexes, the abovementioned experiments were also performed in 0.05 M sodium acetate (pH 5.0) and 0.05 M sodium borate (pH 8.5) buffers.
To confirm the binding constants determined in the quenching experiments, and to get insight into the interaction of Z14Glr with HSA, ultracentrifugation studies were also performed. In these investigations, albumins (with the ligands bound) were sedimented, and then the concentrations of the unbound mycotoxins were quantified from the supernatants.

[5] = molecular target: T2, rat serum albumin (RSA); test: Ultracentrifugation study of Z14Glr-RSA binding; settings: PBS pH 7.4, read-out: logK of the Z14Glr–RSA complex (converted)
[6] = molecular target: T4, bovine serum albumin (BSA) (Bos taurus, UniProt P02769); test: Fluorescence quenching of bovine serum albumin by mycotoxins; type: binding; settings: mycotoxin 0–5 μM, albumin 2 μM, PBS pH 7.4
T4 construct: purchased Merck (Darmstadt, Germany)
T4 sequence (P02769 25-607): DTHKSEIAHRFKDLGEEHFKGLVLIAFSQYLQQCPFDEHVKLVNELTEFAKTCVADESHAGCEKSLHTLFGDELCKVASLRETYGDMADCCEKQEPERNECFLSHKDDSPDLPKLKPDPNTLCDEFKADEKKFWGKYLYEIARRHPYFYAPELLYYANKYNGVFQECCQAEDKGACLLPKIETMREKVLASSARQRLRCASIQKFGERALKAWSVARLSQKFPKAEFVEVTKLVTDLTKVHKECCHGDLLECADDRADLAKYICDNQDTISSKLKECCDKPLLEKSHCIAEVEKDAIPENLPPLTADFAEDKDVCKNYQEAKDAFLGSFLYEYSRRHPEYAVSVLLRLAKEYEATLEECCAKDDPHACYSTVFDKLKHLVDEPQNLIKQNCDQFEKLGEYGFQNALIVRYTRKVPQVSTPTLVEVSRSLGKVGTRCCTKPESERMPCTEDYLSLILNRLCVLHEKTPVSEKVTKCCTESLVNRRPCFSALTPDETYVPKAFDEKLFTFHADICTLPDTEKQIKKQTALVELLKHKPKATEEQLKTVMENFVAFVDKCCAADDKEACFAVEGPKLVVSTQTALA
Protocol: as §1, §2, §3

[7] = Extraction of mycotoxins from aqueous solutions with β-cyclodextrin bead polymer; settings: for decrease in mycotoxin concentration (extraction) by BBP: BBP 10 mg/mL, mycotoxin 5 μM, sodium acetate buffer pH 5.0, 40 min, 25 °C
Protocol: (§7) The extraction of mycotoxins by insoluble (but water-swellable) CD bead polymers was tested in 0.05 M sodium acetate (pH 5.0) and 0.05 M sodium borate (pH 10.0) buffers. AG, AMG, alternariol, Z14Glr, and zearalenone solutions (5 μM each) were incubated with increasing amounts (0–10 mg/mL) of BBP or GBP in a thermomixer for 40 min at 1000 rpm and 25 °C. After pulse centrifugation (5000× g, 3 s), the mycotoxin contents of the supernatants were analyzed by HPLC-FLD (see Section 2.5).
(§8) The quantitative analyses of the examined mycotoxins were performed with a Jasco HPLC system (Tokyo, Japan) equipped with a binary pump (PU-4180), an autosampler (AS 4050), and a fluorescence detector (FP-920). Chromatograms were evaluated using the ChromNAV2 software (Jasco). Alternariol and zearalenone were analyzed as described previously. During the validation of our new HPLC-FLD methods, the linearity (LIN), limit of detection (LOD), limit of quantification (LOQ), and intraday repeatability (IDR) were determined as described previously.
(§9) AG and AMG were quantified using the following method: Isocratic elution of the samples (20 μL) was performed at room temperature with a 1 mL/min flow rate, employing phosphoric acid (1 mM) and acetonitrile (65:35 v/v%) as the mobile phase, where a Security Guard (C18, 4.0 × 3.0 mm; Phenomenex, Torrance, CA, US) precolumn was linked to a Kinetex EVO C18 (250 × 4.6 mm, 5 μm; Phenomenex) analytical column. Chromatograms were recorded, applying 335 nm and 455 nm excitation and emission wavelengths, respectively. The method validation parameters were as follows: AG (LIN: 0.2–5.0 μM, R^2 = 0.999; LOD = 0.05 μM; LOQ = 0.18 μM; IDR = 1.3%, n = 7); AMG (LIN: 0.2–5.0 μM, R^2 = 0.997; LOD = 0.15 μM; LOQ = 0.50 μM; IDR = 2.3%, n = 7).
(§10) Z14Glr was quantified using the following method: Isocratic elution of the samples (20 μL) was performed at room temperature with a 1 mL/min flow rate, employing 1% acetic acid solution and acetonitrile (65:35 v/v%) as the mobile phase, where a Security Guard (C8, 4.0 × 3.0 mm; Phenomenex) precolumn was linked to a Mediterranea See8 (C8, 150 × 4.6 mm, 5 μm; Teknokroma, Barcelona, Spain) analytical column. Chromatograms were recorded, applying 315 nm and 465 nm excitation and emission wavelengths, respectively. The method validation parameters for the HPLC analysis of Z14Glr were also determined (LIN: 0.2–5.0 μM, R^2 = 0.999; LOD = 0.15 μM; LOQ = 0.50 μM; IDR = 2.0%, n = 7).

[8] = molecular target: T3, human serum albumin (HSA); test: Fluorescence quenching of human serum albumin by mycotoxins; type: binding; settings: mycotoxin 0–5 μM, albumin 2 μM, PBS pH 7.4
Protocol: as §1, §2, §3

[9] = Extraction of mycotoxins from aqueous solutions with γ-cyclodextrin bead polymer; settings: GBP 0–10 mg/mL, mycotoxin 5 μM, sodium acetate buffer pH 5.0
Protocol: as §7, §8
as §9, with “The method validation parameters were as follows: AG (LIN: 0.2–5.0 μM, R^2 = 0.999; LOD = 0.05 μM; LOQ = 0.18 μM; IDR = 1.3%, n = 7); AMG (LIN: 0.2–5.0 μM, R^2 = 0.997; LOD = 0.15 μM; LOQ = 0.50 μM; IDR = 2.3%, n = 7).” left out
as §10, with “The method validation parameters for the HPLC analysis of Z14Glr were also determined (LIN: 0.2–5.0 μM, R^2 = 0.999; LOD = 0.15 μM; LOQ = 0.50 μM; IDR = 2.0%, n = 7).” left out

[10] = Fluorescence spectroscopic study of mycotoxin-SGD complex formation; type: binding; settings: SGD 0–5 mM, mycotoxin 1 μM, sodium acetate pH 5.0
Protocol: as §4, §5, §6

[11] = system: albumins; design: method as in PMID 31083629; settings: alternariol, RSA vs HSA; cited from earlier work

| Structure (SMILES) | effect on fluorescence emission spectrum of PSA [1] | RSA logKSV ± SEM (Stern–Volmer quenching constant) ([2]; PBS pH 7.4, 25 °C, albumin 2 μM, mycotoxin 0–5 μM, n = 3) | Kd ([2]; fluorescence quenching, HyperQuad fitting, PBS pH 7.4, n = 3, read-out: RSA logK ± SEM (binding constant) (converted)) | binding constant K of Z14Glr-RSA complex ([2]; fluorescence quenching, PBS pH 7.4) | effect on fluorescence emission intensity of RSA ([2]; mycotoxin 0–5 μM, albumin 2 μM, PBS pH 7.4) | SBECD logK ± SEM (binding constant) ([3]; Benesi–Hildebrand, 0.05 M sodium acetate pH 5.0, mycotoxin 1 μM, n = 3) | SBECD-induced increase in the emission signal of the mycotoxin ([3]; SBECD 0–10 mM, mycotoxin 1 μM, sodium acetate pH 5.0) | Kd ([4]; 0.05 M sodium acetate pH 5.0, mycotoxin 5 μM, n = 3, read-out: HSA pH 5.0 logK ± SEM (binding constant) (converted)) | Kd ([4]; 0.05 M sodium borate pH 8.5, mycotoxin 5 μM, n = 3, read-out: HSA pH 8.5 logK ± SEM (binding constant) (converted)) | Kd ([4]; PBS pH 7.4, mycotoxin 5 μM, n = 3, read-out: HSA pH 7.4 logK ± SEM (binding constant) (converted)) | Kd [5] | effect on fluorescence emission spectrum of BSA [6] | decrease in mycotoxin concentration (extraction) by BBP [7] | removal of mycotoxin by BBP at pH 10.0 compared with pH 5.0 ([7]; sodium borate pH 10.0 vs sodium acetate pH 5.0, mycotoxin 5 μM) | effect on fluorescence emission spectrum of HSA [8] | removal of mycotoxin by GBP [9] | SGD-induced increase in the emission signal of the mycotoxin [10] | affinity of RSA compared to HSA [11] |
| --- | --- | --- | --- | --- | --- | --- | --- | --- | --- | --- | --- | --- | --- | --- | --- | --- | --- | --- |
| C[C@H]1CCCC(=O)CCC/C=C/c2cc(O[C@@H]3OC(C(=O)O)[C@@H](O)C(O)C3O)cc(O)c2C(=O)O1 (stereo partly drawn) [Z14Glr, zearalenone-14-β,D-glucuronide] | barely affected | 4.65 ± 0.05 L/mol | 19.5 µM | ≈ 5 × 10^4 L/mol | considerably decreased | 2.32 ± 0.12 L/mol | ninefold | 25.7 µM | 58.9 µM | 63.1 µM and 60.3 µM | 13.5 µM | barely affected | 45% | significantly lower than at acidic pH | barely affected | only moderate removal | fivefold | – |
| Cc1cc(O)cc2oc(=O)c3c(O)cc(O)cc3c12 [alternariol] | – | – | – | – | – | – | – | – | – | – | – | – | – | – | – | – | – | almost eightfold higher affinity |
| C[C@H]1CCCC(=O)CCC/C=C/c2cc(O)cc(O)c2C(=O)O1 [zearalenone] | – | – | – | – | – | – | – | – | – | – | – | – | more than 95% | – | – | – | – | – |
